Converted amounts (≈) assume the structure as drawn.
Assays:
Mucor mucedo = experiment: Antimicrobial activity against Mucor mucedo IFO 7684 after 2 days by twofold serial broth dilution method; format: functional; settings: IFO 7684, 48 h
Aspergillus niger = experiment: Antimicrobial activity against Aspergillus niger ATCC 6275 after 2 days by twofold serial broth dilution method; format: functional; settings: ATCC 6275, 48 h
Bacillus subtilis = experiment: Antimicrobial activity against Bacillus subtilis ATCC 6633 after 2 days by twofold serial broth dilution method; format: functional; settings: ATCC 6633, 48 h
Micrococcus luteus = experiment: Antimicrobial activity against Micrococcus luteus IFO 3333 after 2 days by twofold serial broth dilution method; format: functional; settings: IFO 3333, 48 h
Proteus vulgaris = experiment: Antimicrobial activity against Proteus vulgaris IAM 12003 after 2 days by twofold serial broth dilution method; format: functional; settings: IAM 12003, 48 h
Wickerhamomyces anomalus = experiment: Antimicrobial activity against Hansenula anomala IFO 0136 after 2 days by twofold serial broth dilution method; format: functional; settings: IFO 0136, 48 h
[1] = system: Rhizopus microsporus var. chinensis; experiment: Antimicrobial activity against Rhizopus chinensis IFO 4772 after 2 days by twofold serial broth dilution method; format: functional; settings: IFO 4772, 48 h
Cyberlindnera jadinii = experiment: Antimicrobial activity against Candida utilis ATCC 42402 after 2 days by twofold serial broth dilution method; format: functional; settings: Williopsis jadinii, ATCC 42402, 48 h
Escherichia coli = experiment: Antimicrobial activity against Escherichia coli IFO 3545 after 2 days by twofold serial broth dilution method; format: functional; settings: IFO 3545, 48 h
Sclerotinia = experiment: Antimicrobial activity against Sclerotinia libertiana Ss after 2 days by twofold serial broth dilution method; settings: 48 h
Pseudomonas aeruginosa = experiment: Antimicrobial activity against Pseudomonas aeruginosa IAM 1007 after 2 days by twofold serial broth dilution method; format: functional; settings: IAM 1007, 48 h
Staphylococcus aureus = experiment: Antimicrobial activity against Staphylococcus aureus NCTC 8530 after 2 days by twofold serial broth dilution method; format: functional; settings: NCTC 8530, 48 h
Saccharomyces cerevisiae = experiment: Antimicrobial activity against Saccharomyces cerevisiae IFO 0203 after 2 days by twofold serial broth dilution method; format: functional; settings: IFO 0203, 48 h
[2] = system: Schizosaccharomyces pombe; experiment: Antimicrobial activity against Schizosaccharomyces pombe IFO 0342 after 2 days by twofold serial broth dilution method; format: functional; settings: IFO 0342, 48 h
Penicillium crustosum = experiment: Antimicrobial activity against Penicillium crustosum Thom after 2 days by twofold serial broth dilution method; format: functional; settings: 48 h

Row | Compound | MIC (Mucor mucedo) [µg/mL] | MIC (Aspergillus niger) [µg/mL] | MIC (Bacillus subtilis) [µg/mL] | MIC (Micrococcus luteus) [µg/mL] | MIC (Proteus vulgaris) [µg/mL] | MIC (Wickerhamomyces anomalus) [µg/mL] | MIC [1] [µg/mL] | MIC (Cyberlindnera jadinii) [µg/mL] | MIC (Escherichia coli) [µg/mL] | MIC (Sclerotinia) [µg/mL] | MIC (Pseudomonas aeruginosa) [µg/mL] | MIC (Staphylococcus aureus) [µg/mL] | MIC (Saccharomyces cerevisiae) [µg/mL] | MIC [2] [µg/mL] | MIC (Penicillium crustosum) [µg/mL]
1 | C=C1[C@@H](C)CC[C@@]2(C)[C@H]1CC=C(C=O)[C@]2(O)C=O | 25 (≈ 101 µM) | 50 (≈ 201 µM) | > 100 | > 100 | > 100 | 25 (≈ 101 µM) | 100 (≈ 403 µM) | 3.13 (≈ 12.6 µM) | > 100 | 3.13 (≈ 12.6 µM) | > 100 | > 100 | 1.56 (≈ 6.28 µM) | 25 (≈ 101 µM) | 50 (≈ 201 µM)
2 | CC(=O)O[C@@H]1C=C(C=O)[C@](O)(C=O)[C@@]2(C)CCCC(C)(C)[C@H]12 [CINNAMODIAL] | > 100 | > 100 | > 100 | > 100 | > 100 | – | > 100 | > 100 | > 100 | > 100 | > 100 | > 100 | > 100 | – | > 100
3 | CC1(C)CCC[C@]2(C)[C@H](C=O)C(C=O)=CC[C@@H]12 [EPIPOLYGODIAL] | > 100 | > 100 | > 100 | > 100 | > 100 | > 100 | > 100 | > 100 | > 100 | > 100 | > 100 | > 100 | > 100 | > 100 | > 100
4 | CC1(C)CCC[C@@]2(C)[C@H]1[C@@H](O)C=C(C=O)[C@]2(O)C=O [MUKAADIAL] | > 100 | > 100 | > 100 | > 100 | > 100 | > 100 | > 100 | > 100 | > 100 | 100 (≈ 375 µM) | > 100 | > 100 | > 100 | > 100 | > 100
5 | CC1(C)C=Cc2c(ccc3c2O[C@H]2c4ccc(O)cc4OC[C@@H]32)O1 [PHASEOLIN] | 12.5 (≈ 38.8 µM) | – | 6.25 (≈ 19.4 µM) | – | – | – | – | 50 (≈ 155 µM) | > 100 | – | > 100 | 12.5 (≈ 38.8 µM) | 25 (≈ 77.6 µM) | – | > 100
6 | CC1(C)CCC[C@]2(C)[C@@H](C=O)C(C=O)=CC[C@@H]12 [POLYGODIAL] | 6.25 (≈ 26.7 µM) | 25 (≈ 107 µM) | > 100 | > 100 | > 100 | 1.56 (≈ 6.66 µM) | 12.5 (≈ 53.3 µM) | 1.56 (≈ 6.66 µM) | > 100 | 1.56 (≈ 6.66 µM) | > 100 | > 100 | 0.78 (≈ 3.33 µM) | 6.25 (≈ 26.7 µM) | 25 (≈ 107 µM)
7 | CC1(C)CCC[C@@]2(C)[C@H]1CC=C(C=O)[C@]2(O)C=O [WARBURGANAL] | 25 (≈ 99.9 µM) | 50 (≈ 200 µM) | > 100 | > 100 | > 100 | 12.5 (≈ 49.9 µM) | 100 (≈ 399 µM) | 3.13 (≈ 12.5 µM) | > 100 | 3.13 (≈ 12.5 µM) | > 100 | > 100 | 3.13 (≈ 12.5 µM) | 12.5 (≈ 49.9 µM) | 50 (≈ 200 µM)

More lines, now with the values ahead:

Row | MIC (Mucor mucedo) [µg/mL] | MIC (Aspergillus niger) [µg/mL] | MIC (Bacillus subtilis) [µg/mL] | MIC (Micrococcus luteus) [µg/mL] | MIC (Proteus vulgaris) [µg/mL] | MIC (Wickerhamomyces anomalus) [µg/mL] | MIC [1] [µg/mL] | MIC (Cyberlindnera jadinii) [µg/mL] | MIC (Escherichia coli) [µg/mL] | MIC (Sclerotinia) [µg/mL] | MIC (Pseudomonas aeruginosa) [µg/mL] | MIC (Staphylococcus aureus) [µg/mL] | MIC (Saccharomyces cerevisiae) [µg/mL] | MIC [2] [µg/mL] | MIC (Penicillium crustosum) [µg/mL] | Compound
8 | 50 (≈ 154 µM) | – | 50 (≈ 154 µM) | – | – | – | – | 100 (≈ 308 µM) | > 100 | – | > 100 | 50 (≈ 154 µM) | 100 (≈ 308 µM) | – | > 100 | CC(C)=CCc1cc([C@@H]2CC(=O)c3ccc(O)cc3O2)ccc1O [ABYSSINONE II]
9 | > 100 | – | 12.5 (≈ 31.8 µM) | – | – | – | – | > 100 | > 100 | – | > 100 | 25 (≈ 63.7 µM) | > 100 | – | > 100 | CC(C)=CCc1cc([C@@H]2CC(=O)c3ccc(O)cc3O2)cc(CC=C(C)C)c1O [ABYSSINONE IV]
10 | > 100 | – | > 100 | – | – | – | – | > 100 | > 100 | – | > 100 | > 100 | > 100 | – | > 100 | CC1(C)C=Cc2cc([C@@H]3CC(=O)c4ccc(O)cc4O3)ccc2O1 [ABYSSINONE I]
11 | > 100 | – | > 100 | – | – | – | – | > 100 | > 100 | – | > 100 | > 100 | > 100 | – | > 100 | CC(C)=CCc1cc(/C=C/C(=O)c2ccc(O)cc2O)cc(CC=C(C)C)c1O [ABYSSINONE VI]
12 | > 100 | – | 25 (≈ 61.2 µM) | – | – | – | – | > 100 | > 100 | – | > 100 | 50 (≈ 122 µM) | > 100 | – | > 100 | CC(C)=CCc1cc([C@@H]2CC(=O)c3c(O)cc(O)cc3O2)cc(CC=C(C)C)c1O [ABYSSINONE V]
13 | > 100 | – | 3.13 (≈ 7.97 µM) | – | – | – | – | > 100 | > 100 | – | > 100 | 3.13 (≈ 7.97 µM) | > 100 | – | > 100 | CC(C)=CCc1cc2c(cc1O)OC[C@H]1c3ccc(O)c(CC=C(C)C)c3O[C@@H]21 [ERYBRAEDIN C]
14 | 25 (≈ 70.5 µM) | – | 6.25 (≈ 17.6 µM) | – | – | – | – | 50 (≈ 141 µM) | > 100 | – | > 100 | 12.5 (≈ 35.3 µM) | 50 (≈ 141 µM) | – | > 100 | COc1ccc2c(c1CC=C(C)C)O[C@H]1c3ccc(O)cc3OC[C@@]21O [ERYTHRABYSSIN I]
15 | 100 (≈ 308 µM) | – | 25 (≈ 77.1 µM) | – | – | – | – | > 100 | > 100 | – | > 100 | 50 (≈ 154 µM) | > 100 | – | > 100 | CC(C)=CCc1c(O)ccc2c1O[C@H]1c3ccc(O)cc3OC[C@@H]21 [PHASEOLLIDIN]
16 | 50 (≈ 122 µM) | – | 25 (≈ 61.2 µM) | – | – | – | – | 100 (≈ 245 µM) | > 100 | – | > 100 | 25 (≈ 61.2 µM) | 100 (≈ 245 µM) | – | > 100 | CC(C)=CCc1cc(C2CC(=O)c3c(O)cc(O)cc3O2)cc(CC=C(C)C)c1O (stereo not drawn) [PHASEOLLIN]
